Test results published in patent US10736967B2, “Method of preparing cyclodextrin complexes” (Panaceanano, Inc., priority 2016, dated 2020).

Key:
[1] = Water solubility of salicylic acid by UV-VIS: loaded in γCD-MOF, without additive, or with γCD and KOH; type: physicochemical
Procedure: The dry, loaded CD-MOF samples were then dissolved in 10 mL water and stirred.
All water solubility shown in FIGS. 2-4 below were measured at room temperature.

[2] = cited from earlier work
[3] = 30% loading (150 mg salicylic acid) in a 500 mg γCD-MOF sample, room temperature, FIG. 3 curve 20
[4] = added directly into a solution containing equivalent amounts of γCD and KOH (500 mg sample), room temperature, FIG. 3 curve 22
[5] = un-complexed salicylic acid in the absence of a CD-MOF, room temperature, FIG. 3 curve 21

| percentage of solubilized salicylic acid in 10 mL of water compared with no additive ([1]; 100 mg CD-MOF sample, loading percentage range of about 25-500%, FIG. 2 curve 10 vs curve 11) | amount of salicylic acid solubilized in 10 mL of water (maximum reached) ([1]; 500 mg CD-MOF sample used as intermediate, room temperature, FIG. 4 curve 31) | percentage of solubilized salicylic acid in 10 mL of water compared with no additive and with γCD and KOH ([1]; 500 mg CD-MOF sample, loading percentage 10-100%, FIG. 3 curve 20 vs curves 21 and 22) | amount of salicylic acid solubilized in 10 mL of water [1, 3] | percentage of solubilized salicylic acid in 10 mL of water [1, 3] | maximum amount of salicylic acid dissolved in 10 mL of water ([1]; absence of any additive, room temperature, FIG. 4 curve 33) | amount of salicylic acid solubilized in 10 mL of water [1, 4] | percentage of solubilized salicylic acid in 10 mL of water [1, 4] | amount of salicylic acid solubilized in 10 mL of water [1, 5] | percentage of solubilized salicylic acid in 10 mL of water [1, 5] | SMILES | solubility in water [2] |
| --- | --- | --- | --- | --- | --- | --- | --- | --- | --- | --- | --- |
| higher | up to 110 mg | significantly higher | about 103 mg | about 69% | about 20 mg | about 58.5 mg | approximately 39% | about 20 mg | approximately 13% | O=C(O)c1ccccc1O [salicylic acid] |  |
|  |  |  |  |  |  |  |  |  |  | OC[C@H]1O[C@@H]2O[C@H]3[C@H](O)[C@@H](O)[C@@H](O[C@H]4[C@H](O)[C@@H](O)[C@@H](O[C@H]5[C@H](O)[C@@H](O)[C@@H](O[C@H]6[C@H](O)[C@@H](O)[C@@H](O[C@H]7[C@H](O)[C@@H](O)[C@@H](O[C@H]1[C@H](O)[C@H]2O)O[C@@H]7CO)O[C@@H]6CO)O[C@@H]5CO)O[C@@H]4CO)O[C@@H]3CO [α-CD, α cyclodextrin] | about 145 mg/mL |
